Assay results reported in the supplement of paper PMC8671470.

Key:
Conditions in all cases: 72 h
KG-1 = test: cell viability (% survival relative to DMSO control, bortezomib = 0%); higher = less cytotoxic
Method in brief: (§1)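 Reported values are percent survival from duplicate wells, averaged. Fifteen myeloid leukaemia cell lines were treated in 384-well plates with compounds at 1, 10, 100, 1000 or 10000 nM for 72 h at 37 °C in 5% CO2. Signals from CellTiter-Glo luminescence were scaled with vehicle as 100% and a 10 µM positive control as 0%.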

MOLM-13 = test: as above
Method in brief: as §1

LAMA-84 = test: as above
Method in brief: as §1

KCL-22 = test: as above
Method in brief: as §1

HEL = test: as above
Method in brief: as §1

THP-1 = test: as above
Method in brief: as §1

HL-60 [1] = test: as above
Method in brief: as §1

K-562 = test: as above
Method in brief: as §1

BV-173 = test: as above
Method in brief: as §1

KU-812 = test: as above
Method in brief: as §1

SHI-1 = test: as above
Method in brief: as §1

NOMO-1 = test: as above
Method in brief: as §1

ML-2 = test: as above
Method in brief: as §1

MV4-11 [2] = test: as above
Method in brief: as §1

Mono-Mac-6 = test: as above
Method in brief: as §1

HL-60 [3] = test: area under dose-response curve (viability, 1 nM-10 uM) (fraction (0-1)); higher = more sensitive
Method in brief: (§2)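 Four-parameter log-logistic fits in drc and PharmacoGx supplied area under the curve where it is given. Underlying viability came from CellTiter-Glo, normalised to DMSO and proteasome-inhibitor wells, with the proteasome inhibitor at 10 μM. HL-60 cells in RPMI 1640 plus 10% FBS had been rescreened against the full library at five tenfold concentrations of 1–10,000 nM, in duplicate on 384-well plates, with DMSO or 100 nM of one of three metabolic inhibitors, for 72 h at 37 °C, 5% CO2.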

MV4-11 [4] = system: MV4-11
Method in brief: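 The IC50 was derived from log-logistic dose–response fitting. Each of fifteen myeloid leukaemia cell lines, seeded in RPMI 1640 within its linear growth range, was exposed in 384-well plates to five tenfold doses (1 to 10,000 nM) in duplicate for 72 h at 37 °C and 5% CO2. Luminescent ATP viability readings were normalised to vehicle and to a positive control at 10 µM before four-parameter curve fitting.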

HL-60 [5] = test: cell viability (% survival relative to DMSO control); higher = less cytotoxic
Method in brief: as §2

O=C(O)Cn1nnc(-c2cc(N3CCC(Oc4cc(F)ccc4Br)CC3)no2)n1 [MK-8245]
Conditions | area under dose-response curve, co-treatment: AZD3965 100 nM | area under dose-response curve, co-treatment: DMSO vehicle | area under dose-response curve, co-treatment: GSK2194069 100 nM | area under dose-response curve, co-treatment: pictilisib 100 nM | cell viability, 1 nM [%] | cell viability, 10 nM [%] | cell viability, 100 nM [%] | cell viability, 1000 nM [%] | cell viability, 10000 nM [%]
BV-173 | – | – | – | – | 88.1 | 105 | 91.2 | 88.6 | 87.3
HEL | – | – | – | – | 108 | 115 | 75.6 | 92.7 | 91.2
HL-60 [1] | – | – | – | – | 105 | 93.2 | 108 | 50.7 | 94.3
HL-60 [3] | < 0.0301 | < 0.0301 | < 0.0301 | < 0.0301 | – | – | – | – | –
K-562 | – | – | – | – | 97.7 | 122 | 90.5 | 88.2 | 41.2
KCL-22 | – | – | – | – | 105 | 118 | 95.5 | 97.7 | 60.1
KG-1 | – | – | – | – | 105 | 117 | 108 | 102 | 112
KU-812 | – | – | – | – | 99 | 107 | 93.4 | 88.2 | 94.7
LAMA-84 | – | – | – | – | 99.6 | 109 | 95.1 | 95.5 | 91.6
ML-2 | – | – | – | – | 109 | 111 | 102 | 105 | 96.7
MOLM-13 | – | – | – | – | 104 | 131 | 86.1 | 48.2 | 35.8
MV4-11 [2] | – | – | – | – | 96.8 | 91.6 | 92.4 | 116 | 94.2
Mono-Mac-6 | – | – | – | – | 91.1 | 90.8 | 94.2 | 94.6 | 88
NOMO-1 | – | – | – | – | 95.8 | 103 | 96.9 | 96.9 | 90
SHI-1 | – | – | – | – | 99 | 119 | 103 | 97.8 | 90.8
THP-1 | – | – | – | – | 95.3 | 96.1 | 102 | 99 | 89.2

Conditions | IC50 (cell viability) [µM]
MV4-11 [4] | > 10

cell viability [%], HL-60 [5]
Conditions | 0.001 µM | 0.01 µM | 0.1 µM | 1 µM | 10 µM
co-treatment: AZD3965 100 nM | 94.6 | 102 | 96.7 | 94.6 | 108
co-treatment: DMSO vehicle | 99.9 | 99.3 | 97.87 | 94.57 | 100
co-treatment: GSK2194069 100 nM | 96.6 | 100 | 101 | 90.2 | 97.4
co-treatment: pictilisib 100 nM | 95.7 | 96.7 | 104 | 90.7 | 103
